Data reported in US8497287B2, “Aminotetralin compounds as mu opioid receptor antagonists” (priority 2007, dated 2013).

Assays:
human mu opioid receptor [1] = molecular target: T1, human mu opioid receptor (Homo sapiens, UniProt P35372); assay: biochemical; type: binding
T1 construct: host or cells: CHO-K1 cells, membranes

human mu opioid receptor [2] = molecular target: T1, human mu opioid receptor; assay: biochemical; conditions: read-out: intrinsic activity (IA), expressed as a percentage
[3] = tested on: loperamide-induced delayed gastric emptying; assay: Rat gastric emptying assay, reversal of loperamide-induced delayed gastric emptying; type: in vivo; conditions: administered orally, loperamide 1 mg/kg s.c., gastric emptying model

T1 sequence (P35372 whole entry): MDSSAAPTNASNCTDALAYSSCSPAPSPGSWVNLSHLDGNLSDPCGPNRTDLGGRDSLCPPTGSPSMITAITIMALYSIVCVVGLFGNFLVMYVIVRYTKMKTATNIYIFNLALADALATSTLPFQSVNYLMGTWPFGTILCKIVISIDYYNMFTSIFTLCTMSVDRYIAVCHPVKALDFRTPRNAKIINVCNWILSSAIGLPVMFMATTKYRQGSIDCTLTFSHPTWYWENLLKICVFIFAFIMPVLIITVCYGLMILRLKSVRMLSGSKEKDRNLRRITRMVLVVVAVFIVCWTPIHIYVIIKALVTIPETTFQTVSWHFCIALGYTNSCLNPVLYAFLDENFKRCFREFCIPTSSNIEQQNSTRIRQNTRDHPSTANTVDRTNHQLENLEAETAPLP

| Structure (SMILES) | Ki (human mu opioid receptor [1]) [nM] | Emax (human mu opioid receptor [2]) [%] | ID50, dose required for 50% reversal of the effects of loperamide [3] [mg/kg] |
| --- | --- | --- | --- |
| CCC1(CC)c2cc(O)ccc2C[C@@H](OC)[C@@H]1NCC(Cc1ccccc1)C(=O)O (relative stereo) [Example 11, 2-Benzyl-3-(trans-1,1-diethyl-7-hydroxy-3-methoxy-1,2,3,4-tetrahydro-naphthalen-2-ylamino)-propionic acid] | 1.26 | -6 |  |
| COC1Cc2ccc(C(N)=O)cc2C(C)(C)C1NCCC(=O)N1CCCCC1 (racemic) [Example 1, trans-6-Methoxy-8,8-dimethyl-7-(3-oxo-3-piperidin-1-yl-propylamino)-5,6,7,8-tetrahydro-naphthalene-2-carboxylic acid amide] | 0.1 | 0 | 0.48 |
